Source: patent EP4076432B1, “COMPOSITION AND METHOD FOR THE PREVENTION AND TREATMENT OF OBESITY” (Vector Vitale IP LLC, priority 2019, dated 2021)
“And” between values parts separate entries of the source, which are not always exact repeats. Equal entries are not always repeated. “Also recorded” adds a separate entry of the source.

What was measured:
superoxide dismutase = assay: Serum superoxide dismutase activity in obesity model; assay type: in vivo; conditions: DIO rats (high-fat diet), zinc aspartate 4.5 mg/animal intragastrically every third day, week 10
Procedure: To measure superoxide dismutase activity, a method based on the ability of this enzyme to inhibit auto-oxidation of adrenaline was used.
Serum aliquots were added to microplate wells containing 0.2M bicarbonate buffer, pH 10. The reaction was initiated by adding 0.1% adrenaline solution in each well. A relevant volume of buffer was added to the "blank" wells to which no test sample was added. The optical density was measured at a wavelength of 347 nm using a µQuant microplate spectrophotometer (BioTek Instruments) at the 4th and 8th minute after adrenaline was added to the wells. The enzyme activity was expressed in relative units/min/mg.

[1] = Intraperitoneal administration of zinc preparations to intact rats (insulin, superoxide dismutase, islets of Langerhans, metals, body weight); assay type: in vivo; conditions: 7 injections; for accumulation of zinc in the kidney tissues / accumulation of zinc in the liver tissues: day 1 and day 7 after withdrawal
Procedure: The current dose was calculated by zinc.
The rat serum was prepared from whole blood.
The total kidney and liver homogenates were centrifuged at 600 g for 15 minutes.
The optical density was measured at 492 nm.

[2] = tested on: pro-inflammatory (IL-1, IL-6, IL-12, IFN-γ) and anti-inflammatory (IL-4, IL-10, TGF) cytokines; assay: Serum cytokine profile in obesity model (immunoenzyme method); assay type: in vivo, rats; conditions: zinc aspartate 4.5 mg/animal intragastrically every third day
Procedure: (§1) Animal serum was prepared from whole blood. […] Samples were centrifuged for 15 min at 2500 g.

Glucose tolerance test = assay type: in vivo, rats; set-up: Glucose tolerance test, 0 min (1 h after effector administration): unit not given here; conditions: for glucose levels in the glucose tolerance test: compared with the control group
From the text: 5 animals were used within the same experimental group.

[3] = tested on: products of oxidative modification of proteins; assay: Serum levels of products of oxidative modification of proteins in obesity model; assay type: in vivo; conditions: DIO rats (high-fat diet), zinc aspartate 4.5 mg/animal intragastrically every third day, week 10
Procedure: as §1
Proteins were precipitated by adding a 20% TCA solution.

[4] = tested on: peripheral serotonergic system (duodenum); assay: Indicators of the peripheral serotonergic system (duodenum) in obesity model; assay type: in vivo, rats; conditions: zinc aspartate 4.5 mg/animal intragastrically every third day, week 10
From the text: (§2) The tissue : buffer ratio was 1:10.
The samples were reprecipitated by centrifugation. […]
(§3) The supernatant was used in further studies.

[5] = tested on: serotonergic system (serum); assay: Serum tryptophan, serotonin and monoamine oxidase activity in obesity model; assay type: in vivo, rats; conditions: zinc aspartate 4.5 mg/animal intragastrically every third day, week 10
Procedure: as §1
(§4) The samples were reprecipitated by centrifugation.
(§5) University. Medicine. - 2000. - 1, No. 494. - P. 40-43.

[6] = Serum lipids, alkaline phosphatase activity and albumin in obesity model; assay type: in vivo, rats; conditions: table is an image
From the text: Test kit // Pliva-Lachema Diagnostika. - 2008.
The alkaline phosphatase activity was expressed in relative units.

[7] = tested on: central serotonergic system (brain); assay: Indicators of the central serotonergic system (brain) in obesity model; assay type: in vivo, rats; conditions: zinc aspartate 4.5 mg/animal intragastrically every third day, week 10
From the text: The animal's head was separated from the body and the skull was carefully cut. The brain was carefully lifted with a scalpel from the bony vault, all cranial nerves were amputated and the brain was removed from the skull. The brain was divided into two parts with a longitudinal incision made between the hemispheres.
as §2, §4, §5, §3

islets of Langerhans = assay: Morpho-functional analysis of pancreas in obesity model; assay type: in vivo, rats; conditions: zinc aspartate 4.5 mg/animal intragastrically every third day
From the text: After fixation, the pieces were rinsed in tap water. Then the material was dehydrated.
Dried preparations were stained with hematoxylin and eosin.

[8] = Anthropometric values, amount and calorie content of food in high-fat diet induced obesity model; conditions: zinc aspartate 4.5 mg/animal intragastrically every third day; for BMI (g/cm^2) / Weight gain as of the end of the experiment (%): week 10
From the text: White non-pedigree rats with an initial weight of 195-205±10 g were used in the experiment.
Before the start of the experiment, animals were maintained on a standard diet of the vivarium. To induce obesity in experimental animals, they were fed high-fat diet which consisted of standard feed (60%), lard (10%), chicken eggs (10%), sucrose (9%), peanuts (5%), dry milk (5%) and sunflower oil (1%) (1%) (see X. H. Shen et al., Exp. Biol. and Med. 235: 47-51 (2010)).
Animals in all groups were weighed once a week after an overnight fast. The amount of feed to be consumed by the animals was determined daily. At the end of a 10-week period of the development of obesity models, 24 hours after the last administration of the zinc isotope solution, animals were removed from their cages and decapitated.
The body mass index (BMI) (the ratio of body weight (g) to the square of body length (cm^2)) was calculated at the end of the experiment.
Animals with an initial weight of 195-205±10 g maintained on the standard diet of the vivarium before performing obesity models were used in the experiments.
Animals in all groups were weighed once a week after an overnight fast. The amount of feed to be consumed by the animals was determined daily.

[9] = tested on: pro-inflammatory (IL-1, IL-6, IL-12, IFN-γ) and anti-inflammatory (IL-4, IL-10, TGF) cytokines; assay: Cytokine profile in adipose tissue in obesity model (immunoenzyme method); assay type: in vivo, rats; conditions: zinc aspartate 4.5 mg/animal intragastrically every third day, week 10
Procedure: Adipose tissue was crushed using cold scissors then transferred to a homogenizer with a loose-fitting Teflon pestle. […] Primary homogenate thus obtained was centrifuged at 600 g for 15 minutes. The supernatant was carefully collected and re-centrifuged at 15,000 g for 15 minutes. The supernatant was then frozen and stored at -80°C until the experiments.
The antigen solution, previously diluted with 0.1 M NaHCO3 buffer, pH 9.6, to a concentration of 10 µg/ml, was incubated in the plate wells for 12 hours at 4°C. Unbound material was removed by washing the wells three times with TBS buffer, first with 0.05% Tween-20, then without Tween-20. Non-specific binding sites were blocked by adding a solution of 5% skim milk or a solution of 1% bovine serum albumin to the plate wells and incubating them for 60 minutes at 37°C. After incubation, the wells were washed three times with TBS, first with 0.05% Tween-20, then without Tween-20. Primary antibodies were diluted in TBS in accordance with the manufacturer's instructions and incubated with the antigen for 60 min at 37°C. After washing with TBS working buffer, first with the addition of 0.05% Tween-20, then without Tween-20, the conjugate of secondary antibodies was added to the wells and incubated for 60 min at 37°C. As with the primary antibodies, secondary antibodies were diluted in TBS in accordance with the manufacturer's instructions. After the washing procedure, phenyldiamine dihydrochloride as substrate in 0.05M phosphate-citrate buffer was added to each well, followed by the addition of 0.3% hydrogen peroxide. After 10 minutes, the reaction time needed for development, 2.5 n H2SO4 was added.
The absorbance at a wavelength of 492 nm was measured using a µQuant microplate spectrophotometer (BioTek Instruments).

[10] = 3750 µg of zinc per 1 kg intraperitoneally every other day
[11] = 3750 µg of zinc per 1 kg intraperitoneally
[12] = DIO rats (high-fat diet), week 10
[13] = control rats (standard diet), week 10
[14] = rats having obesity (high-fat diet)

Structure (SMILES): N[C@@H](CC(=O)[O-])C(=O)[O-].[Zn+2] [^64Zne, zinc aspartate]
- Superoxide dismutase activity, RU/ min per mg protein (superoxide dismutase): 4.5±0.43 # RU/ min per mg protein
- body weight of rats [1, 10]: a significant increase in the body weight
- serum insulin levels at day 7 after the withdrawal [1, 10]: insulin levels in the blood of animals increased
- serum insulin levels on the first day after the drug withdrawal [1, 10]: slightly higher than in the group of intact animals
- serum insulin levels at day 7 after the withdrawal ([1]; 3750 µg of zinc per 1 kg intraperitoneally every other day, listed as zinc isotope): a significant increase in the insulin levels
- accumulation of zinc in the kidney tissues [1, 11]: significantly increased
- accumulation of zinc in the liver tissues [1, 11]: significantly increased
- area of islets of Langerhans ([1]; 3750 µg of zinc per 1 kg intraperitoneally, day 7 after the last administration, compared to control group and zinc acetate group): a significant increase in the islet area
- IFN-γ level [2, 12]: 4.1±1.2 RU/mg protein
- IL-1 level [2, 12]: 4.2±0.4 RU/mg protein
- IL-4 level [2, 12]: 5.6±1.6 RU/mg protein
- IL-6 level [2, 12]: 5.1±0.4 RU/mg protein
- IL-10 level [2, 12]: 6.8±1.1 # RU/mg protein
- IL-12 level [2, 12]: 2.4±0.06 RU/mg protein
- TGF level [2, 12]: 5.7±0.3 # RU/mg protein
- TGF level ([2]; DIO rats (high-fat diet), week 10, listed as Zinc): 5.7±0.3 RU/mg protein
- IFN-γ level [2, 13]: 4.6±0.6 RU/mg protein
- IL-1 level [2, 13]: 3.5±0.7 RU/mg protein
- IL-4 level [2, 13]: 4.6±0.8 RU/mg protein
- IL-6 level [2, 13]: 4.3±0.2 RU/mg protein
- IL-10 level [2, 13]: 4.1±0.5 RU/mg protein
- IL-12 level [2, 13]: 0.3±0.04 RU/mg protein
- TGF level [2, 13]: 4.1±0.4 RU/mg protein
- glucose levels in the glucose tolerance test (Glucose tolerance test; listed as zinc isotope): a drop in glucose concentration; also recorded: a decrease in glucose levels
- glucose levels in the glucose tolerance test (Glucose tolerance test; listed as zinc isotope ^64Zn): a significant decrease in glucose levels
- Aldehyde-dinitrophenyl-hydrazones, nmol/mg protein [3]: 0.253±0.012 nmol/mg protein
- Ketone-dinitrophenyl-hydrazones, nmol/mg protein [3]: 0.200±0.024 nmol/mg protein
- Indoleamine dioxygenase activity, µmol/mg protein ([4]; DIO rats (high-fat diet)): 1768 ± 274 µmol/mg protein
- Monoamine oxidase activity, RU/mg protein ([4]; DIO rats (high-fat diet)): 1.72 ±0.03 RU/mg protein
- Serotonin ([4]; DIO rats (high-fat diet)): 9.73 ± 0.82 µg/g
- Tryptophan ([4]; DIO rats (high-fat diet)): 89.4 ± 8.99 µg/g
- Tryptophan decarboxylase activity, RU/mg protein ([4]; DIO rats (high-fat diet)): 0.78 ± 0.19 RU/mg protein
- Tryptophan hydroxylase activity, RU/mg protein ([4]; DIO rats (high-fat diet)): 253 ± 58 RU/mg protein
- Indoleamine dioxygenase activity, µmol/mg protein ([4]; control rats (standard diet)): 2150 ± 231 µmol/mg protein
- Monoamine oxidase activity, RU/mg protein ([4]; control rats (standard diet)): 3.82 ±0.07 RU/mg protein
- Serotonin ([4]; control rats (standard diet)): 7.41 ± 0.54 µg/g
- Tryptophan ([4]; control rats (standard diet)): 154.7 ± 13.6 µg/g
- Tryptophan decarboxylase activity, RU/mg protein ([4]; control rats (standard diet)): 0.79 ± 0.22 RU/mg protein
- Tryptophan hydroxylase activity, RU/mg protein ([4]; control rats (standard diet)): 375 ± 61 RU/mg protein
- Monoamine oxylase activity, RU/mg protein ([5]; DIO rats (high-fat diet)): 3.11±0.08 RU/mg protein
- Serotonin ([5]; DIO rats (high-fat diet)): 6.33 ± 0.51 µg/g
- Tryptophan ([5]; DIO rats (high-fat diet)): 66.65 ± 9.62 µg/g
- Monoamine oxylase activity, RU/mg protein ([5]; control rats (standard diet)): 2.52±0.03 RU/mg protein
- Serotonin ([5]; control rats (standard diet)): 10.16 ± 0.62 µg/g
- Tryptophan ([5]; control rats (standard diet)): 56.12 ± 7.58 µg/g
- levels of triglycerides, cholesterol and free fatty acids in the serum ([6]; animals fed a high-fat diet, zinc aspartate 2.25 mg/ml intragastrically in a volume of 2 ml): almost at the same level as in the control group
- alkaline phosphatase activity ([6]; serum, animals on high-fat diet treated intragastrically): higher than both in the group of diet-induced obesity models and in the control group
- albumin values ([6]; serum, obese animals treated intragastrically, versus untreated obese animals): had no effect on albumin values
- Indoleamine dioxygenase activity, µmol/mg protein ([7]; DIO rats (high-fat diet)): 2007 ± 175 µmol/mg protein
- Monoamine oxidase activity, RU/mg protein ([7]; DIO rats (high-fat diet)): 0.99±0.08 RU/mg protein
- Serotonin ([7]; DIO rats (high-fat diet)): 20.1 ± 3.21 µg/g
- Tryptophan ([7]; DIO rats (high-fat diet)): 31.56 ± 2.14 µg/g
- Tryptophan decarboxylase activity, RU/mg protein ([7]; DIO rats (high-fat diet)): 1.86 ± 0.37 RU/mg protein
- Tryptophan hydroxylase activity, RU/mg protein ([7]; DIO rats (high-fat diet)): 286 ± 17 RU/mg protein
- Indoleamine dioxygenase activity, µmol/mg protein ([7]; control rats (standard diet)): 1178 ± 267 µmol/mg protein
- Monoamine oxidase activity, RU/mg protein ([7]; control rats (standard diet)): 0.91 ±0.06 RU/mg protein
- Serotonin ([7]; control rats (standard diet)): 25.51 ± 2.71 µg/g
- Tryptophan ([7]; control rats (standard diet)): 87.71 ± 3.41 µg/g
- Tryptophan decarboxylase activity, RU/mg protein ([7]; control rats (standard diet)): 1.63 ± 0.41 RU/mg protein
- Tryptophan hydroxylase activity, RU/mg protein ([7]; control rats (standard diet)): 291 ± 29 RU/mg protein
- cross-sectional surface area of the islets of Langerhans, increase compared with the obesity group (islets of Langerhans; [14]): 43%
- cross-sectional surface area of the islets of Langerhans, lower than the control value (islets of Langerhans; [14]): 29%
- cross-sectional surface area of the islets of Langerhans, decrease compared with the control group (islets of Langerhans; rats that ate a standard diet): 39%
- Amount of food consumed ([8]; DIO rats (high-fat diet)): 29 g/day
- Calorie content of food ([8]; DIO rats (high-fat diet)): 823 kJ/day
- BMI (g/cm^2) ([8]; DIO rats (high-fat diet)): 0.65 g/cm^2
- Weight gain as of the end of the experiment (%) ([8]; DIO rats (high-fat diet)): 62%
- Amount of food consumed ([8]; control rats (standard diet)): 32 g/day
- Calorie content of food ([8]; control rats (standard diet)): 490 kJ/day
- BMI (g/cm^2) ([8]; control rats (standard diet)): 0.59 g/cm^2
- Weight gain as of the end of the experiment (%) ([8]; control rats (standard diet)): 59%
- IFN-γ level ([9]; DIO rats (high-fat diet)): 4.9±0.8 RU/mg protein
- IL-4 level ([9]; DIO rats (high-fat diet)): 5.1±1.2 RU/mg protein
- IL-6 level ([9]; DIO rats (high-fat diet)): 6.1±0.7 RU/mg protein
- IL-10 level ([9]; DIO rats (high-fat diet)): 5.8±0.8 RU/mg protein
- IL-12 level ([9]; DIO rats (high-fat diet)): 1.99±0.01 RU/mg protein
- TGF level ([9]; DIO rats (high-fat diet)): 5.2±0.9 RU/mg protein
- IFN-γ level ([9]; control rats (standard diet)): 5.0±0.8 RU/mg protein
- IL-1 level ([9]; control rats (standard diet)): 4.9±1.7 RU/mg protein
- IL-4 level ([9]; control rats (standard diet)): 5.0±0.4 RU/mg protein
- IL-6 level ([9]; control rats (standard diet)): 5.4±0.3 RU/mg protein
- IL-10 level ([9]; control rats (standard diet)): 4.9±0.2 RU/mg protein
- IL-12 level ([9]; control rats (standard diet)): 1.0±0.03 RU/mg protein
- TGF level ([9]; control rats (standard diet)): 5.1±0.6 RU/mg protein

Structure (SMILES): CC(=O)[O-].CC(=O)[O-].[Zn+2] [Zn acetate, Zn(CH3COO)2, reference compound]
- serum insulin levels at day 7 after the withdrawal [1, 10]: a drop in the insulin levels to the value of those of intact/control animals
- serum insulin levels on the first day after the drug withdrawal [1, 10]: a significant increase
- accumulation of zinc in the kidney tissues [1, 11]: significantly increased
- accumulation of zinc in the liver tissues [1, 11]: significantly increased
- Glucose tolerance test, 0 min (1 h after effector administration) (Glucose tolerance test; blood glucose, fast overnight, dose: 5 mg/kg in a volume of 2 ml, individual animals 1-5, 5 mg/kg): 4.6 and 5.2 (2×) and 4.9 and 5.1
- Glucose tolerance test, 60 min (1 h after glucose administration) (Glucose tolerance test; blood glucose, glucose 3 g/kg body weight in 2 ml, dose: 5 mg/kg in a volume of 2 ml, individual animals 1-5, 5 mg/kg): 7.2 (2×) and 6.9 and 7.3 and 6.8
- glucose levels in the glucose tolerance test (Glucose tolerance test): glucose levels also dropped, though not so strongly
